Experimental findings from patent publication US4167511A, “Methylsilacyclopentenyl-containing silylating agents and method therefor” (Dow Corning Corporation, priority 1978, dated 1979) are described below.

The nature of the data set: Silylating power: half-life of silylating agent in excess isopropyl alcohol at 35° C. (1H n.m.r.). To be noted: for Half-life in Excess Isopropanol: 0.1 ml. silylating agent in 0.5 ml. anhydrous isopropyl alcohol, 35° C., n.m.r. The format is physicochemical. An excerpt:
The compositions of this invention have unexpected silylating power. By the terms silylating and silylation it is meant a process wherein an active-hydrogen, i.e. one bond to an oxygen, sulfur or nitrogen atom, in a compound is replaced with a hydrocarbon-substituted silyl radical. Silylation, according to the process of this invention proceeds rapidly and, in many cases, essentially quantitatively thereby replacing an active-hydrogen with a methylsilacyclopentenyl radical. By silylating power it is meant the ability of a silylating agent to silylate isopropyl alcohol as indicated by the half-life of the silylating agent in excess isopropyl alcohol at 35° C., using standard chemical kinetic measuring methods hereinafter described. Silylating power is inversely related to said half-life.
Standard nuclear magnetic resonance (n.m.r.) tubes, 5 mm. O.D.×205 mm. long, were first charged with 0.1 ml. of the silylating agents listed in the Table and then with 0.5 ml. of anhydrous isopropyl alcohol using a dry box to insure anhydrous conditions. Immediately after the addition of isopropyl alcohol the tubes were stoppered, inverted at least once to mix the reactants, removed from the dry box, and, within 30 seconds after the addition of isopropyl alcohol, were placed in a varian A-60 ^1 H n.m.r. spectometer at 35° C. The n.m.r. spectrometer was preset to record the signal of the hydrogen atoms in the silicon-bonded methyl group. In repeat experiments the n.m.r. spectrometer was preset to record the signal of the hydrogen atoms in the methyl groups of N-methylacetamideor the nitrogen-bound hydrogen atom in epsilon-caprolactam. Where possible the reaction was followed by taking several readings of the appropriate n.m.r. signal intensity over a period of time.
The compositions of this invention have a half-life which is too short to measure by this technique since they are completely reacted before the reaction mixture is placed in the n.m.r. spectrometer.

Regarding `C=C[Si](C)(C)N(C)C(C)=O`, the “Half-life in Excess Isopropanol” value is 240 min.
The same measure, in the same setting: for `CC(=O)N(C)[Si](C)(C)c1ccccc1` the value was 55 min; for `CC(=O)N(C)[Si](C)(C)CCC(F)(F)F`, 40 min.
As for “methylsilacyclopentenyl-N-methylacetamide”, the silylating power result (compared in words with triorganosilyl analogs, inversely related to half-life in excess isopropyl alcohol at 35° C.) is “greater than that of trimethylsilyl-N-methylacetamide, dimethylvinylsilyl-N-methylacetamide, dimethylphenylsilyl-N-methylacetamide and dimethyl-3,3,3-trifluoropropylsllyl-N-methylacetamide”.
